Earlier results, collected in patent US20200397744A1, “COMPOSITIONS COMPRISING CO-CRYSTALS OF STILBENOIDS AND CANNABINOIDS” (priority 2018, published 2020).

Tests used:
[1] = tested on: hyperglycemic rats
[2] = in vivo
[3] = tested on: cancer cell lines; details: cancer cell lines in vitro

In the case of `CN(C)C(=N)N=C(N)N` [metformin], the “decrease of plasma glucose levels” value [1] is given as 48%.

For `COc1cc(/C=C/c2ccc(O)cc2)cc(OC)c1` [pterostilbene, trans-3,5-dimethoxy-4′-hydroxystilbene], the bioavailability [2] is given as “poor bioavailability” and the cytotoxic activity [3] is given as “cytotoxic activity”.
